Source: patent publication US5378696A, “Rapamycin esters” (American Home Products Corporation, priority 1993, dated 1995)
Converted amounts (≈) assume the structure as drawn. Counter-ions that a name gives are not always drawn. Like-named read-outs stand apart in the source and are kept apart here.

How the values were obtained:
Candida albicans 3669 = assay: antifungal plate test procedure; assay type: cell-based
Description: (§1) The following represents the typical procedure used. Compound to be tested was placed on sterile dried 1/4" plate disks, and allowed to dry. Agar plates were seeded with fungi and allowed to solidify. The impregnated disks were placed on the seeded Agar surface and incubated for the time required for the particular culture. Results are expressed in MIC (μg/ml) to inhibit growth.

[1] = tested on: Candida albicans ATCC 38247; assay: antifungal plate test procedure; assay type: cell-based
Description: as §1

[2] = tested on: Candida albicans ATCC 38246; assay: antifungal plate test procedure; assay type: cell-based
Description: as §1

[3] = tested on: Candida albicans ATCC 38248; assay: antifungal plate test procedure; assay type: cell-based
Description: as §1

[4] = tested on: Candida albicans ATCC 10231; assay: antifungal plate test procedure; assay type: cell-based
Description: as §1

[5] = tested on: lymphocyte proliferation, cells from the thymus of normal BALB/c mice (PHA and IL-1); assay: comitogen-induced thymocyte proliferation procedure (LAF); assay type: cell-based; conditions: ratio, thymocytes 72 hours with PHA and IL-1, rapamycin 1.0
Description: (§2) Immunosuppressive activity was evaluated in an in vitro standard pharmacological test procedure to measure lymphocyte proliferation (LAF) and in two in vivo standard pharmacological test procedures. The first in vivo procedure was a popliteal lymph node (PLN) test procedure which measured the effect of compounds of this invention on a mixed lymphocyte reaction and the second in vivo procedure evaluated the survival time of a pinch skin graft.
Briefly, cells from the thymus of normal BALB/c mice are cultured for 72 hours with PHA and IL-1 and pulsed with tritiated thymidine during the last six hours. […] Cells are harvested and incorporated; radioactivity is determined. inhibition of lymphoproliferation is assessed in percent change in counts per minute from non-drug treated controls. The results are expressed by the following ratio: [formula]

pinch skin graft = assay: survival time of pinch skin graft; assay type: in vivo, mouse (male DBA/2 donors, male BALB/c recipients); conditions: intraperitoneally, mean graft survival time ± S.D.
Description: as §2
The second in vivo test procedure is designed to determine the survival time of pinch skin graft from male DBA/2 donors transplanted to male BALB/c recipients. The method is adapted from Billingham R. E. and Medawar P. B., J. Exp. Biol. 28:385-402, (1951). Briefly, a pinch skin graft from the donor is grafted on the dorsum of the recipient as a homograft, and an autograft is used as control in the same region. […] Untreated recipients serve as rejection control. The graft is monitored daily and observations are recorded until the graft becomes dry and forms a blackened scab. This is considered as the rejection day. The mean graft survival time (number of days±S.D.) of the drug treatment group is compared with the control group.

[6] = Candida albicans, 3669, strain 3669, read-out: MIC
[7] = Candida albicans, ATCC38247, ATCC 38247, read-out: MIC
[8] = Candida albicans, ATCC38246, ATCC 38246, read-out: MIC
[9] = Candida albicans, ATCC38248, ATCC 38248, read-out: MIC
[10] = Candida albicans, ATCC10231, ATCC 10231, read-out: MIC

Compound | MIC (Candida albicans 3669; [6]) [µg/mL] | MIC [1, 7] [µg/mL] | MIC [2, 8] [µg/mL] | MIC [3, 9] [µg/mL] | MIC [4, 10] [µg/mL] | LAF (ratio) [5] | Skin Graft (days + SD), mean graft survival time (pinch skin graft) [days] | further results
CO[C@H]1C[C@@H]2CC[C@@H](C)[C@@](O)(O2)C(=O)C(=O)N2CCCC[C@H]2C(=O)O[C@H]([C@H](C)C[C@@H]2CC[C@@H](OC(=O)CCC(=O)OCc3ccccc3)[C@H](OC)C2)CC(=O)[C@H](C)/C=C(\C)[C@@H](O)[C@@H](OC)C(=O)[C@H](C)C[C@H](C)/C=C/C=C/C=C/1C [Example 3, Rapamycin-42-(monobenzylsuccinate)] | 0.1 (≈ 0.0905 µM) | 0.4 (≈ 0.362 µM) | 0.1 (≈ 0.0905 µM) | 0.1 (≈ 0.0905 µM) | 0.2 (≈ 0.181 µM) | 3.27 | 12.7 ± 0.9 | 
CO[C@H]1C[C@@H]2CC[C@@H](C)[C@@](OC(=O)CCC(=O)OCc3ccccc3)(O2)C(=O)C(=O)N2CCCC[C@H]2C(=O)O[C@H]([C@H](C)C[C@@H]2CC[C@@H](OC(=O)CCC(=O)OCc3ccccc3)[C@H](OC)C2)CC(=O)[C@H](C)/C=C(\C)[C@@H](OC(=O)CCC(=O)OCc2ccccc2)[C@@H](OC)C(=O)[C@H](C)C[C@H](C)/C=C/C=C/C=C/1C [Example 1, Rapamycin-14,31,42-tris(monobenzylsuccinate)] | > 0.4 | > 0.4 | > 0.4 | > 0.4 | > 0.4 | 0.37 | 8.2 ± 1.2 | 
C=CCOC(=O)CCCC(=O)O[C@@H]1CC[C@@H](C[C@@H](C)[C@@H]2CC(=O)[C@H](C)/C=C(\C)[C@@H](O)[C@@H](OC)C(=O)[C@H](C)C[C@H](C)/C=C/C=C/C=C(\C)[C@@H](OC)C[C@@H]3CC[C@@H](C)[C@@](O)(O3)C(=O)C(=O)N3CCCC[C@H]3C(=O)O2)C[C@H]1OC [Example 14, Rapamycin-42-allylglutarate] |  |  |  |  |  | 3.42 | 11.0 ± 0.0 | 
CO[C@H]1C[C@@H]2CC[C@@H](C)[C@@](O)(O2)C(=O)C(=O)N2CCCC[C@H]2C(=O)O[C@H]([C@H](C)C[C@@H]2CC[C@@H](OC(=O)CCCC(=O)O)[C@H](OC)C2)CC(=O)[C@H](C)/C=C(\C)[C@@H](OC(=O)CCCC(=O)O)[C@@H](OC)C(=O)[C@H](C)C[C@H](C)/C=C/C=C/C=C/1C [Example 5, Rapamycin-31,42-hemiglutarate bissodium salt] |  |  |  |  |  |  |  | MIC (Candida albicans 3669; strain 3669, bissodium salt): > 0.4 µg/mL; MIC ([1]; ATCC 38247, bissodium salt): > 0.4 µg/mL; MIC ([2]; ATCC 38246, bissodium salt): > 0.4 µg/mL; MIC ([3]; ATCC 38248, bissodium salt): > 0.4 µg/mL; MIC ([4]; ATCC 10231, bissodium salt): 0.4 µg/mL; LAF (ratio) ([5]; bissodium salt): 0.02; Skin Graft (days + SD), mean graft survival time (pinch skin graft; bissodium salt): 8.0 ± 1.7 days
CO[C@H]1C[C@@H]2CC[C@@H](C)[C@@](O)(O2)C(=O)C(=O)N2CCCC[C@H]2C(=O)O[C@H]([C@H](C)C[C@@H]2CC[C@@H](OC(=O)COCC(=O)O)[C@H](OC)C2)CC(=O)[C@H](C)/C=C(\C)[C@@H](OC(=O)COCC(=O)O)[C@@H](OC)C(=O)[C@H](C)C[C@H](C)/C=C/C=C/C=C/1C [Example 9, Rapamycin-31,42-bishemi-3'-oxoglutarate disodium salt] |  |  |  |  |  |  |  | MIC (Candida albicans 3669; strain 3669): > 0.4 µg/mL; MIC ([1]; ATCC 38247, disodium salt): 0.2 µg/mL; MIC ([2]; ATCC 38246): > 0.4 µg/mL; MIC ([3]; ATCC 38248, disodium salt): 0.4 µg/mL; MIC ([4]; ATCC 10231, disodium salt): 0.2 µg/mL; LAF (ratio) ([5]; disodium salt): 0.22; Skin Graft (days + SD), mean graft survival time (pinch skin graft; disodium salt): 10.2 ± 1.2 days
CO[C@H]1C[C@@H]2CC[C@@H](C)[C@@](O)(O2)C(=O)C(=O)N2CCCC[C@H]2C(=O)O[C@H]([C@H](C)C[C@@H]2CC[C@@H](OC(=O)CCC(=O)OCc3ccccc3)[C@H](OC)C2)CC(=O)[C@H](C)/C=C(\C)[C@@H](OC(=O)CCC(=O)OCc2ccccc2)[C@@H](OC)C(=O)[C@H](C)C[C@H](C)/C=C/C=C/C=C/1C [Example 2, Rapamycin-31,42-bis(monobenzylsuccinate)] | 0.4 (≈ 0.309 µM) | > 0.4 | 0.4 (≈ 0.309 µM) | 0.4 (≈ 0.309 µM) | > 0.4 | 0.9 | 10.7 ± 1.2 | 
CO[C@H]1C[C@@H]2CC[C@@H](C)[C@@](O)(O2)C(=O)C(=O)N2CCCC[C@H]2C(=O)O[C@H]([C@H](C)C[C@@H]2CC[C@@H](OC(=O)COCC(=O)O)[C@H](OC)C2)CC(=O)[C@H](C)/C=C(\C)[C@@H](OC(=O)COCC(=O)O)[C@@H](OC)C(=O)[C@H](C)C[C@H](C)/C=C/C=C/C=C/1C [Example 10, Rapamycin-31,42-bishemi-3'-oxoglutarate bistromethamine salt] |  |  |  |  |  | 0.18 | 10.8 ± 0.8 | MIC (Candida albicans 3669; strain 3669): > 0.4 µg/mL; MIC ([1]; ATCC 38247): 0.2 µg/mL; MIC ([2]; ATCC 38246): > 0.4 µg/mL; MIC ([3]; ATCC 38248): 0.4 µg/mL; MIC ([4]; ATCC 10231): 0.1 µg/mL
CO[C@H]1C[C@@H]2CC[C@@H](C)[C@@](O)(O2)C(=O)C(=O)N2CCCC[C@H]2C(=O)O[C@H]([C@H](C)C[C@@H]2CC[C@@H](OC(=O)CCCC(=O)O)[C@H](OC)C2)CC(=O)[C@H](C)/C=C(\C)[C@@H](OC(=O)CCCC(=O)O)[C@@H](OC)C(=O)[C@H](C)C[C@H](C)/C=C/C=C/C=C/1C [Example 6, Rapamycin-31,42-bishemiglutarate bistromethamine salt] |  |  |  |  |  | 0.01 | 8.0 ± 0.9 | MIC (Candida albicans 3669; strain 3669): > 0.4 µg/mL; MIC ([1]; ATCC 38247): 0.4 µg/mL; MIC ([2]; ATCC 38246): > 0.4 µg/mL; MIC ([3]; ATCC 38248): > 0.4 µg/mL; MIC ([4]; ATCC 10231): 0.4 µg/mL
CO[C@H]1C[C@@H]2CC[C@@H](C)[C@@](O)(O2)C(=O)C(=O)N2CCCC[C@H]2C(=O)O[C@H]([C@H](C)C[C@@H]2CC[C@@H](OC(=O)CCCC(=O)O)[C@H](OC)C2)CC(=O)[C@H](C)/C=C(\C)[C@@H](OC(=O)CCCC(=O)O)[C@@H](OC)C(=O)[C@H](C)C[C@H](C)/C=C/C=C/C=C/1C [Example 4, Rapamycin-31,42-bishemiglutarate] | 0.4 (≈ 0.35 µM) | > 0.4 | 0.2 (≈ 0.175 µM) | 0.2 (≈ 0.175 µM) | > 0.4 | 0.56 | 10.2 ± 1.7 | 
CO[C@H]1C[C@@H]2CC[C@@H](C)[C@@](O)(O2)C(=O)C(=O)N2CCCC[C@H]2C(=O)O[C@H]([C@H](C)C[C@@H]2CC[C@@H](OC(=O)COCC(=O)O)[C@H](OC)C2)CC(=O)[C@H](C)/C=C(\C)[C@@H](O)[C@@H](OC)C(=O)[C@H](C)C[C@H](C)/C=C/C=C/C=C/1C [Example 7, Rapamycin-42-hemi-3'-oxoglutarate] | 0.2 (≈ 0.194 µM) | 0.1 (≈ 0.0971 µM) | 0.4 (≈ 0.388 µM) | 0.1 (≈ 0.0971 µM) | 0.1 (≈ 0.0971 µM) | 0.97 | 12.0 ± 1.0 | 
CO[C@H]1C[C@@H]2CC[C@@H](C)[C@@](O)(O2)C(=O)C(=O)N2CCCC[C@H]2C(=O)O[C@H]([C@H](C)C[C@@H]2CC[C@@H](OC(=O)COCC(=O)O)[C@H](OC)C2)CC(=O)[C@H](C)/C=C(\C)[C@@H](OC(=O)COCC(=O)O)[C@@H](OC)C(=O)[C@H](C)C[C@H](C)/C=C/C=C/C=C/1C [Example 8] | > 0.4 | 0.4 (≈ 0.349 µM) | > 0.4 | > 0.4 |  | positive ratio |  | MIC ([4]; ATCC 10231): 0.4 µg/mL (≈ 0.349 µM)
CO[C@H]1C[C@@H]2CC[C@@H](C)[C@@](O)(O2)C(=O)C(=O)N2CCCC[C@H]2C(=O)O[C@H]([C@H](C)C[C@@H]2CC[C@@H](OC(=O)CCC(=O)O)[C@H](OC)C2)CC(=O)[C@H](C)/C=C(\C)[C@@H](OC(=O)CCC(=O)O)[C@@H](OC)C(=O)[C@H](C)C[C@H](C)/C=C/C=C/C=C/1C [Example 11, Rapamycin-31,42-bishemisuccinate] | > 0.4 | > 0.4 | > 0.4 | > 0.4 | > 0.4 |  | 7.8 ± 1.7 | 
C=CCOC(=O)CCCC(=O)O[C@@H]1/C(C)=C/[C@@H](C)C(=O)C[C@@H]([C@H](C)C[C@@H]2CC[C@@H](O)[C@H](OC)C2)OC(=O)[C@@H]2CCCCN2C(=O)C(=O)[C@]2(O)O[C@@H](CC[C@H]2C)C[C@H](OC)/C(C)=C/C=C/C=C/[C@@H](C)C[C@@H](C)C(=O)[C@@H]1OC [Example 15, Rapamycin-31-allylglutarate] |  |  |  |  |  | 0.40 | 9.8 ± 0.8 | 
